Reference: PubChem BioAssay (NCI)
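How tested: cells in 96-well plates exposed to compound for 48 hours at five concentrations. GI50 marks 50% less growth. TGI marks complete inhibition of growth.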

Columns and labels:
Assay in all cases: NCI anticancer screen, dose series, 48 h
[1] = tested on: SW-620 colon
[2] = tested on: U251 CNS
[3] = tested on: SF-268 CNS
[4] = tested on: MOLT-4 leukemia
[5] = tested on: IGROV1 ovarian
[6] = tested on: NCI-H226 lung
[7] = tested on: UO-31 renal
[8] = tested on: SR leukemia
[9] = tested on: BT-549 breast
[10] = tested on: T-47D breast

Row | Structure (SMILES) | TGI [1] | TGI [2] | TGI [3] | TGI [4] | TGI [5] | TGI [6] | TGI [7] | TGI [8] | GI50 [1] | GI50 [2] | GI50 [9] | TGI [9] | GI50 [3] | GI50 [4] | GI50 [5] | GI50 [6] | GI50 [7] | GI50 [10] | TGI [10] | GI50 [8]
1 | CC1(C)C2CCC13CS(=O)(=O)N1O[C@]13C(=O)O2 (stereo partly drawn) | > 100 µM | > 100 µM | > 100 µM | > 100 µM | > 100 µM | > 100 µM | > 100 µM | > 100 µM | – | – | – | – | – | – | – | – | – | – | – | –
2 | COc1ccc(OC)c(C2SCC(=O)N2NC(=O)C(O)c2ccccc2)c1 (stereo not drawn) | > 100 µM | > 100 µM | > 100 µM | > 100 µM | > 100 µM | > 100 µM | > 100 µM | – | > 100000 nM | > 100 µM | > 100000 nM | > 100 µM | > 100 µM | > 100 µM | > 100 µM | > 100 µM | > 100 µM | > 100 µM | > 100 µM | –
3 | O=C([CH-]C(=O)c1ccccc1)c1ccccc1.O=C([CH-]C(=O)c1ccccc1)c1ccccc1.[OH-].[OH-].[Ti+4] | > 100 µM | > 100 µM | > 100 µM | > 100 µM | > 100 µM | > 100 µM | > 100 µM | – | 49000 nM | 18.1 µM | – | – | 92.5 µM | 54.7 µM | > 100 µM | 58 µM | 59.3 µM | – | – | –
4 | C=C1CCC2[C@@H](CCC3[C@]2(C)CCC[C@]3(C)C(=O)OC)[C@@H]1CC=O (stereo partly drawn) | 37.6 µM | > 100 µM | > 100 µM | 59.9 µM | > 100 µM | > 100 µM | > 100 µM | – | – | 46 µM | – | – | – | 23.6 µM | – | – | 31.3 µM | – | – | –
5 | CCCCCn1sc(=O)n(Cc2ccc(CNC(=O)OCc3ccc4cccc(O)c4n3)cc2)c1=O | 2.83 µM | 3.45 µM | 4.14 µM | 45.2 µM | 2.65 µM | 3.31 µM | 2.25 µM | – | 1250 nM | 1.77 µM | 1440 nM | 3.65 µM | 1.82 µM | 3.02 µM | 1.17 µM | 1.47 µM | 1.07 µM | 1.79 µM | 4.52 µM | –
6 | CC(=O)c1c(C(F)(F)F)n([O-])c2ccc(C)cc2[n+]1=O | > 100 µM | > 35.4 µM | > 38.9 µM | 5.2 µM | > 100 µM | 6.85 µM | – | – | 3540 nM | 2.79 µM | 2540 nM | 8.66 µM | 3.41 µM | 0.0504 µM | 4.14 µM | 1.71 µM | 4.39 µM | 6.52 µM | > 67.1 µM | –
7 | c1ccc(P(=Nc2ccccc2N=P(c2ccccc2)(c2ccccc2)c2ccccc2)(c2ccccc2)c2ccccc2)cc1 | 14.3 µM | 11.6 µM | > 100 µM | – | 22.8 µM | 1.38 µM | 6.35 µM | – | – | – | – | – | – | – | – | – | – | – | – | –
8 | Cc1ccc(C2=Nc3ccccc3SC(c3cccc([N+](=O)[O-])c3)C2)cc1 (stereo not drawn) | > 100 µM | 16.9 µM | > 100 µM | – | > 100 µM | > 100 µM | 23 µM | – | – | – | – | 83.6 µM | – | – | – | – | – | – | 72.5 µM | –
9 | COC(=O)C(C)(C)N=CN(C)C | > 100 µM | > 100 µM | > 100 µM | > 100 µM | > 100 µM | > 100 µM | > 100 µM | > 100 µM | – | – | – | – | – | – | – | – | – | – | – | –
10 | O=C(NC1CCCC1=O)c1ccccc1 (stereo not drawn) | > 100 µM | > 100 µM | > 100 µM | > 100 µM | > 100 µM | > 100 µM | > 100 µM | > 100 µM | – | – | – | – | – | – | – | – | – | – | – | –
11 | CC1(C)OCC(C(O)C2OC(C)(C)OC2/C=N\O)O1 (stereo not drawn) | > 100 µM | > 100 µM | > 100 µM | > 100 µM | > 100 µM | – | > 100 µM | – | – | – | – | – | – | – | – | – | – | – | – | –
12 | CNS(=O)(=O)NNS(=O)(=O)c1ccc(Cl)cc1 | > 100 µM | – | > 100 µM | > 100 µM | > 100 µM | – | > 100 µM | > 100 µM | – | – | – | – | – | – | – | – | – | – | – | –
13 | Cc1ccc(S(=O)OC2C3CC4CC(C3)CC2C4)cc1 (stereo not drawn) | > 100 µM | > 100 µM | > 100 µM | > 100 µM | > 100 µM | > 100 µM | > 100 µM | > 100 µM | – | – | – | – | – | – | – | – | – | – | – | –
14 | CN(C)c1ccc(/C=C2\C=Cc3ccccc32)cc1 | > 100 µM | > 100 µM | > 100 µM | > 100 µM | > 100 µM | – | > 100 µM | > 100 µM | – | – | – | – | – | – | – | – | – | – | – | –
15 | CCN(CCO)CC(C)Nc1ccc([N+](=O)[O-])c2sc3ccccc3c(=O)c12 (stereo not drawn) | 3.19 µM | 3.35 µM | 11.5 µM | 2.89 µM | 1.6 µM | 7.15 µM | 1.65 µM | – | 1040 nM | 0.716 µM | 2100 nM | 13.1 µM | 1.98 µM | 0.361 µM | 0.34 µM | 1.37 µM | 0.278 µM | 2.68 µM | 26.8 µM | –
16 | CCCCCCN(N)C(=O)CC#N | > 100 µM | > 100 µM | > 100 µM | > 100 µM | > 100 µM | > 100 µM | > 100 µM | – | – | – | – | – | – | – | – | – | – | – | – | –

Row | Structure (SMILES) | TGI [1] | TGI [2] | TGI [3] | TGI [4] | TGI [5] | TGI [6] | TGI [7] | TGI [8] | GI50 [1] | GI50 [2] | GI50 [9] | TGI [9] | GI50 [3] | GI50 [4] | GI50 [5] | GI50 [6] | GI50 [7] | GI50 [10] | TGI [10] | GI50 [8]
17 | CC1CN1c1c(C(=O)/C=C/c2ccccc2)c(-c2ccccc2)nn(C)c1=O (stereo not drawn) | 39.8 µM | 31.6 µM | 56.2 µM | 52.7 µM | 59.8 µM | 45.3 µM | 29.1 µM | – | – | – | – | – | – | – | – | – | – | – | – | –
18 | Fc1cccc(C2SCc3nc4ccccc4n32)c1F (stereo not drawn) | > 100 µM | > 100 µM | > 100 µM | 68.5 µM | > 100 µM | > 100 µM | > 100 µM | > 100 µM | – | – | – | – | – | – | – | – | – | – | – | –
19 | N#Cc1ccc(N=Cc2c([O-])ccc3ccccc23)cc1.[C-]#[O+].[C-]#[O+].[Ir] | 4.09 µM | 25.7 µM | 29.2 µM | 19.3 µM | 27.9 µM | – | 26.1 µM | 20.6 µM | 1930 nM | 13 µM | – | – | 14.8 µM | 4.16 µM | 14.1 µM | – | 13.2 µM | – | – | 4.17 µM
20 | COc1ccc(/C=N/NC(=O)Cn2c(-c3ccc(S(C)(=O)=O)cc3)nc3cc(Cl)ccc32)cc1 | > 50 µM | > 50 µM | > 50 µM | > 50 µM | > 50 µM | > 50 µM | > 50 µM | – | 1210 nM | 1.16 µM | 2740 nM | 48.5 µM | 2.76 µM | 2.11 µM | 3.63 µM | 1.63 µM | 3.45 µM | 3.22 µM | > 50 µM | –
21 | COc1cc2nc(NCCCCCNC(=O)c3ccco3)nc(N)c2cc1OC | 58.1 µM | 42.5 µM | > 100 µM | 67.8 µM | > 100 µM | 95.6 µM | > 100 µM | – | – | – | – | – | – | – | – | – | – | – | – | –
22 | C/C=C(\C)c1cc(O)c(C)c2c1Oc1cc(O)c(Cl)c(C)c1C(=O)O2 | 37.4 µM | 39.6 µM | 66 µM | – | – | 33.6 µM | 27.2 µM | 49.5 µM | – | – | – | – | – | – | – | – | – | – | – | –
23 | O=C(O)/C(Cl)=C(\Cl)C(=O)Nc1ccc(Cl)c(Cl)c1Cl | 35.3 µM | 34.3 µM | 42.8 µM | 59.7 µM | 38.7 µM | 35.5 µM | 30 µM | 70.1 µM | – | – | – | – | – | – | – | – | – | – | – | –
24 | COC1O[C@@H]2C[C@H]3C(C)(C)CCC[C@]3(C)C3=CCCC1[C@@]32C (stereo partly drawn) | > 100 µM | > 100 µM | > 100 µM | > 100 µM | > 100 µM | > 100 µM | > 100 µM | – | > 100000 nM | > 100 µM | > 100000 nM | > 100 µM | > 100 µM | > 100 µM | > 100 µM | > 100 µM | > 100 µM | > 100 µM | > 100 µM | –
25 | COc1ccc(C=O)c(NC(=O)C(C)C)c1 | > 10 µM | > 100 µM | > 100 µM | 74.7 µM | > 100 µM | > 10 µM | 82.6 µM | – | – | – | – | – | – | – | – | – | – | – | – | –
26 | CCO/C=C1\N=C(c2ccccc2Br)OC1=O | > 100 µM | – | > 100 µM | > 100 µM | – | > 100 µM | > 100 µM | – | – | – | – | – | – | – | – | – | – | – | – | –
27 | Nc1ccc(-c2nc3ccccc3[nH]2)c2ccccc12 | > 100 µM | 30.6 µM | > 100 µM | > 100 µM | 42.6 µM | 37.9 µM | > 82.8 µM | – | 1400 nM | 4.12 µM | 2390 nM | 22.5 µM | 5.93 µM | 3.44 µM | 3.36 µM | 8.44 µM | 5.32 µM | 11.6 µM | > 61.6 µM | –
28 | CN(C)c1ccc(N=Nc2ccncc2)cc1 | > 100 µM | > 100 µM | > 100 µM | > 100 µM | > 100 µM | > 100 µM | > 100 µM | – | – | – | – | > 100 µM | – | – | – | – | – | – | > 100 µM | –
29 | COc1ccc2c(c1OC)C(=O)OC2C1c2c(c([N+](=O)[O-])c3c(c2OC)OCO3)CCN1C (stereo not drawn) | > 100 µM | > 100 µM | > 100 µM | – | – | > 100 µM | > 100 µM | – | > 100000 nM | > 100 µM | > 100000 nM | > 100 µM | > 100 µM | – | – | > 100 µM | > 100 µM | 54.1 µM | > 100 µM | –
30 | COC(CN1C=C(Sc2ccccc2)CC1)OC | 47.9 µM | – | > 100 µM | 80.3 µM | > 100 µM | > 100 µM | > 100 µM | – | – | – | – | – | – | – | – | – | – | – | – | –
31 | O=c1[nH]cnc2c(C3NC(CO)C(O)C3O)c[nH]c12 (stereo not drawn) | > 100 µM | > 100 µM | > 100 µM | – | > 100 µM | > 100 µM | > 100 µM | – | > 100000 nM | > 100 µM | > 100000 nM | > 100 µM | > 100 µM | – | > 100 µM | > 100 µM | > 100 µM | > 100 µM | > 100 µM | –
